The source of these data is publication PMC9268428, “Determination of the Highly Sensitive Carboxyl-Graphene Oxide-Based Planar Optical Waveguide Localized Surface Plasmon Resonance Biosensor” (Nanomaterials, 2022).

For the experiment, the target named is T1, streptavidin (Streptomyces avidinii, UniProt P22629).
T1 construct: free analyte in PBS
The experiment is described as follows: localized surface plasmon resonance on graphene-oxide optical waveguide, affinity constant from ka/kd. It is filed as binding. Conditions: read-out: Kf (converted). The source says:
localized surface plasmon resonance on graphene-oxide optical waveguide, affinity constant from ka/kd on streptavidin | ka and kd of biotin binding with streptavidin were estimated to be

Where a name gives a salt, the structure may show the parent alone.

T1 sequence (P22629 25-183): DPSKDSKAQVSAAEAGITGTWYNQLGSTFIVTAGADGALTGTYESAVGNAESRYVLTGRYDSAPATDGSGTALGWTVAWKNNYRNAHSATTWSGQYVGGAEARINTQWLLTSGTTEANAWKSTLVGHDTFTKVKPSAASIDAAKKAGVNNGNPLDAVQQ

As to `NCCCNC(=O)CCCC[C@@H]1SC[C@@H]2NC(=O)N[C@@H]21` [N-(+)-biotinyl-3-aminopropylammonium trifluoroacetate], the Kd is 0.137 nM.
